Measurements: article PMC10980815, “Cell surface patching via CXCR4-targeted nanothreads for cancer metastasis inhibition” (Nature Communications, 2024)
Ends that are not written are not given here. HPMA copolymer = HPMA copolymer made by RAFT copolymerization of HPMA with N-(3-aminopropyl)methacrylamide (APMA), bearing maleimide groups for grafting

What was measured:
[1] = tested on: orthotopic 4T1 breast tumors; assay: EMT markers E-cadherin and vimentin in primary tumors (flow cytometry); type: in vivo, female BALB/c mice
Protocol: (§1) 4T1 cells (1 × 10^6 cells) were injected into the third mammary fat pad of female BALB/c mice (6–8-week). […] On day 28, blood samples, lungs and tumors were harvested.
(§2) To investigate the epithelial-mesenchymal transition process in tumor tissues, immunofluorescent staining of E-cadherin, vimentin, MMP-9, and TGF-β, along with flow cytometry analysis of E-cadherin and vimentin, were applied. For immunofluorescent staining of E-cadherin and vimentin, tumor slices were stained with CoraLite® Plus 647 anti-mouse CD324 (E-cadherin, 1:300 dilution) and anti-vimentin mouse monoclonal antibody (1:500 dilution) at 4 °C overnight, followed by staining with goat anti-mouse IgG H&L Alexa Fluor® 488 (1:1000 dilution). For flow cytometry analysis of E-cadherin and vimentin, single-cell suspensions of tumor tissues were stained with CoraLite® Plus 647 anti-mouse CD324 (E-cadherin, 1:300 dilution) or sequentially stained with anti-vimentin recombinant rabbit monoclonal antibody and goat anti-rabbit IgG H&L Alexa Fluor® 647 (1:1000 dilution), respectively. For immunofluorescent staining of MMP-9 and TGF-β, tumor slices were separately stained with MMP9 Rabbit pAb (1:500 dilution) or anti-TGF beta 1 recombinant rabbit monoclonal antibody (1:500 dilution), followed by staining with goat anti-rabbit IgG H&L Alexa Fluor® 647 (1:1000 dilution), respectively.

[2] = tested on: HIF-1α in orthotopic 4T1 tumors; assay: Intratumoral HIF-1α expression by flow cytometry; type: in vivo, female BALB/c mice
Protocol: as §1
For evaluating the hypoxic conditions in tumor tissues, immunofluorescent staining and flow cytometry analysis of HIF-1α were conducted. For immunofluorescent staining of HIF-1α, tumor slices were sequentially stained with anti-HIF-1 alpha recombinant rabbit monoclonal antibody (1:500 dilution) and goat anti-rabbit IgG H&L Alexa Fluor® 647 (1:1000 dilution). For flow cytometry analysis of HIF-1α, single-cell suspensions of tumor tissues were sequentially stained with anti-HIF1 alpha rabbit polyclonal antibody (1:500 dilution) and goat anti-rabbit IgG H&L Alexa Fluor® 647 (1:1000 dilution) before analysis.

LOX [3] = assay: Immunofluorescence of LOX in lung tissues; type: in vivo, female BALB/c mice
Protocol: (§3) To explore the “seed-soil” crosstalk, the serum, intra-tumoral, and pulmonary concentration of LOX was determined using enzyme-linked immunosorbent assay kits (CSB-EL013041MO, CUSABIO, https://www.cusabio.com/) according to the manufacturer’s instructions. The serum, intra-tumoral, and pulmonary concentration of TGF-β was determined using mouse TGF-β ELISA Kit (Cat No.: HB1328-Mu). The formation of PMN was investigated through lung slices subjected to immunofluorescent staining of LOX, E-cadherin, and S100A8. For immunofluorescent staining of E-cadherin, Lung slices were stained with CoraLite® Plus 647 anti-mouse CD324 (E-cadherin, 1:300 dilution). For immunofluorescent staining of LOX and S100A8, Lung slices were separately stained with anti-LOX recombinant rabbit monoclonal antibody (1:500 dilution) or S100-A8 / MRP8 rabbit pAb (1:500 dilution), followed by staining with goat anti-rabbit IgG H&L Alexa Fluor® 647 (1:1000 dilution), respectively. Single-cell suspensions of lungs were analyzed using flow cytometry to assess BMDC (CD11b^+Gr1^+) with PE anti-mouse/human CD11b antibody (1:300 dilution) and FITC anti-mouse Ly-6G/Ly-6C (Gr-1) antibody (1:300 dilution). Chemokine concentrations in lungs were determined using a mouse CXCL12 ELISA kit.

CXCL12 in lungs = assay: Pulmonary CXCL12 ELISA; type: in vivo, female BALB/c mice
Protocol: as §1, §3

LOX [4] = assay: LOX ELISA (intra-tumoral, serum, pulmonary); type: in vivo, female BALB/c mice; set-up: Pulmonary LOX: unit not given beside the values; Intratumoral LOX / Systemic LOX: unit not given here; settings: for Systemic LOX: serum
Protocol: as §1, §3

MMP-9 and TGF-β = assay: Immunofluorescence of MMP-9 and TGF-β in tumor tissues; type: in vivo, female BALB/c mice
Protocol: as §2

ζ-potential (Zetasizer) = type: physicochemical; settings: Malvern Zetasizer Nano ZS90; mean ± SD
[5] = i.v. days 7, 14, 21 (5 mg/kg BS equivalence; P-CM2 24 h later), analysis day 28, mouse 1 of 5
[6] = ELISA, i.v. days 7, 14, 21, analysis day 28, mouse 1 of 5

## LGASWHRPDKCCLGYQKRPLPA [Free BS]
[1]; replicate 1
  Relative fluorescence intensity of E-cadherin: 125.013
  Relative fluorescence intensity of vimentin: 279.76
[1]; replicate 2
  Relative fluorescence intensity of E-cadherin: 109.513
  Relative fluorescence intensity of vimentin: 205.554
[1]; replicate 3
  Relative fluorescence intensity of E-cadherin: 122.233
  Relative fluorescence intensity of vimentin: 194.538
[1]; replicate 4
  Relative fluorescence intensity of E-cadherin: 126.237
  Relative fluorescence intensity of vimentin: 224.095
[1]; replicate 5
  Relative fluorescence intensity of E-cadherin: 145.15
  Relative fluorescence intensity of vimentin: 192.228
[2]; [5]
  intratumoral HIF-1α expression, flow cytometry (Fig. 6c): 1107.6
[2]; same, mouse 2 of 5
  intratumoral HIF-1α expression, flow cytometry (Fig. 6c): 915.453
[2]; same, mouse 3 of 5
  intratumoral HIF-1α expression, flow cytometry (Fig. 6c): 924.512
[2]; same, mouse 4 of 5
  intratumoral HIF-1α expression, flow cytometry (Fig. 6c): 898.316
[2]; same, mouse 5 of 5
  intratumoral HIF-1α expression, flow cytometry (Fig. 6c): 847.852
LOX [3]; replicate 1
  Mean fluorescence intensity of LOX in lung tissues: 145.665
LOX [3]; replicate 2
  Mean fluorescence intensity of LOX in lung tissues: 136.817
LOX [3]; replicate 3
  Mean fluorescence intensity of LOX in lung tissues: 150.369
LOX [3]; replicate 4
  Mean fluorescence intensity of LOX in lung tissues: 132.821
LOX [3]; replicate 5
  Mean fluorescence intensity of LOX in lung tissues: 140.21
CXCL12 in lungs; [6]
  pulmonary CXCL12 (Fig. 6g): 440
CXCL12 in lungs; same, mouse 2 of 5
  pulmonary CXCL12 (Fig. 6g): 579
CXCL12 in lungs; same, mouse 3 of 5
  pulmonary CXCL12 (Fig. 6g): 367
CXCL12 in lungs; same, mouse 4 of 5
  pulmonary CXCL12 (Fig. 6g): 552
CXCL12 in lungs; same, mouse 5 of 5
  pulmonary CXCL12 (Fig. 6g): 532
LOX [4]; replicate 1
  Intratumoral LOX: 4.19
  Pulmonary LOX: 254.76
  Systemic LOX: 127.4
LOX [4]; replicate 2
  Intratumoral LOX: 4.18
  Pulmonary LOX: 210.31
  Systemic LOX: 132.76
LOX [4]; replicate 3
  Intratumoral LOX: 5.17
  Pulmonary LOX: 211.1
  Systemic LOX: 133.61
LOX [4]; replicate 4
  Intratumoral LOX: 5.44
  Pulmonary LOX: 280.17
  Systemic LOX: 151.3
LOX [4]; replicate 5
  Intratumoral LOX: 4.81
  Pulmonary LOX: 276.43
  Systemic LOX: 147.4
MMP-9 and TGF-β; replicate 1
  Relative fluorescence intensity of MMP-9 in tumor tissues: 143.238
  Relative fluorescence intensity of TGF-β in tumor tissues: 172.974
MMP-9 and TGF-β; replicate 2
  Relative fluorescence intensity of MMP-9 in tumor tissues: 142.904
  Relative fluorescence intensity of TGF-β in tumor tissues: 152.446
MMP-9 and TGF-β; replicate 3
  Relative fluorescence intensity of MMP-9 in tumor tissues: 138.899
  Relative fluorescence intensity of TGF-β in tumor tissues: 165.051
MMP-9 and TGF-β; replicate 4
  Relative fluorescence intensity of MMP-9 in tumor tissues: 132.502
  Relative fluorescence intensity of TGF-β in tumor tissues: 164.828
MMP-9 and TGF-β; replicate 5
  Relative fluorescence intensity of MMP-9 in tumor tissues: 136.888
  Relative fluorescence intensity of TGF-β in tumor tissues: 159.609

## P-BS: HPMA copolymer-BS conjugate, ~6 BS grafts per polymer (LGASWHRPDKCCLGYQKRPLPA; not fully specified (residues 11, 12); also: about 6 peptides grafted on HPMA copolymer via cysteine-maleimide thioether links)
ζ-potential (Zetasizer)
  ζ-potential: -15.53±1.45 mV
[1]; replicate 1
  Relative fluorescence intensity of E-cadherin: 136.747
  Relative fluorescence intensity of vimentin: 148.698
[1]; replicate 2
  Relative fluorescence intensity of E-cadherin: 140.523
  Relative fluorescence intensity of vimentin: 180.025
[1]; replicate 3
  Relative fluorescence intensity of E-cadherin: 162.569
  Relative fluorescence intensity of vimentin: 180.666
[1]; replicate 4
  Relative fluorescence intensity of E-cadherin: 158.855
  Relative fluorescence intensity of vimentin: 185.036
[1]; replicate 5
  Relative fluorescence intensity of E-cadherin: 155.981
  Relative fluorescence intensity of vimentin: 170.787
[2]; [5]
  intratumoral HIF-1α expression, flow cytometry (Fig. 6c): 747.043
[2]; same, mouse 2 of 5
  intratumoral HIF-1α expression, flow cytometry (Fig. 6c): 870.276
[2]; same, mouse 3 of 5
  intratumoral HIF-1α expression, flow cytometry (Fig. 6c): 640.882
[2]; same, mouse 4 of 5
  intratumoral HIF-1α expression, flow cytometry (Fig. 6c): 534.456
[2]; same, mouse 5 of 5
  intratumoral HIF-1α expression, flow cytometry (Fig. 6c): 521.955
LOX [3]; replicate 1
  Mean fluorescence intensity of LOX in lung tissues: 121.535
LOX [3]; replicate 2
  Mean fluorescence intensity of LOX in lung tissues: 108.102
LOX [3]; replicate 3
  Mean fluorescence intensity of LOX in lung tissues: 109.056
LOX [3]; replicate 4
  Mean fluorescence intensity of LOX in lung tissues: 97.784
LOX [3]; replicate 5
  Mean fluorescence intensity of LOX in lung tissues: 101.188
CXCL12 in lungs; [6]
  pulmonary CXCL12 (Fig. 6g): 258
CXCL12 in lungs; same, mouse 2 of 5
  pulmonary CXCL12 (Fig. 6g): 221
CXCL12 in lungs; same, mouse 3 of 5
  pulmonary CXCL12 (Fig. 6g): 368
CXCL12 in lungs; same, mouse 4 of 5
  pulmonary CXCL12 (Fig. 6g): 245
CXCL12 in lungs; same, mouse 5 of 5
  pulmonary CXCL12 (Fig. 6g): 267
LOX [4]; replicate 1
  Intratumoral LOX: 3.43
  Pulmonary LOX: 195.4
  Systemic LOX: 76.42
LOX [4]; replicate 2
  Intratumoral LOX: 2.08
  Pulmonary LOX: 174.61
  Systemic LOX: 77.13
LOX [4]; replicate 3
  Intratumoral LOX: 1.87
  Pulmonary LOX: 154.51
  Systemic LOX: 91.2
LOX [4]; replicate 4
  Intratumoral LOX: 2.69
  Pulmonary LOX: 156.3
  Systemic LOX: 85.1
LOX [4]; replicate 5
  Intratumoral LOX: 2.96
  Pulmonary LOX: 144.2
  Systemic LOX: 105.1
MMP-9 and TGF-β; replicate 1
  Relative fluorescence intensity of MMP-9 in tumor tissues: 108.085
  Relative fluorescence intensity of TGF-β in tumor tissues: 144.596
MMP-9 and TGF-β; replicate 2
  Relative fluorescence intensity of MMP-9 in tumor tissues: 120.005
  Relative fluorescence intensity of TGF-β in tumor tissues: 130.014
MMP-9 and TGF-β; replicate 3
  Relative fluorescence intensity of MMP-9 in tumor tissues: 113.377
  Relative fluorescence intensity of TGF-β in tumor tissues: 139.806
MMP-9 and TGF-β; replicate 4
  Relative fluorescence intensity of MMP-9 in tumor tissues: 115.997
  Relative fluorescence intensity of TGF-β in tumor tissues: 146.777
MMP-9 and TGF-β; replicate 5
  Relative fluorescence intensity of MMP-9 in tumor tissues: 97.611
  Relative fluorescence intensity of TGF-β in tumor tissues: 131.749

## P-CM2-Cy3: Cy3-labeled P-CM2 (C(HPMA copolymer)YGGEVSALEKEVSALEKKNSALEKEVSALEKEVSALEK; also: Cy3 label on conjugate, position not given here)
ζ-potential (Zetasizer)
  ζ-potential: -9.21±0.67 mV
